According to the supplement of paper PMC11061612:

Legend:
[1] = compound: Cn1cnc2c(F)c(Nc3ccc(Br)cc3Cl)c(C(=O)NOCCO)cc21 [Selumetinib]; details: max 10 µM
How it was run: (§1)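 After 24 hours at 37°C and 5% CO2 in 1536-well plates holding 7.5 μl of DMEM/F12 or RPMI with 10% FBS, cancer cell lines were dosed for 72 hours, with final DMSO typically 0.2%. Viability came from CellTiter-Glo 2.0 luminescence, scaled between the means of blank wells and DMSO wells. A non-linear mixed effects model fitted a two-parameter logistic curve to each dose response to give the single-agent IC50.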

[2] = compound: C[C@@H](c1ccc2nccn2c1)n1nnc2ncc(-c3cnn(C)c3)nc21 [Savolitinib]; details: max 1 µM
How it was run: as §1

[3] = compound: C[C@@H](Oc1cc(-c2cnn(C3CCNCC3)c2)cnc1N)c1c(Cl)ccc(F)c1Cl [Crizotinib]; details: max 10 µM
How it was run: as §1

[4] = compound: Cc1nc(-c2cn3c(n2)-c2ccc(-c4cnn(C(C)(C)C(N)=O)c4)cc2OCC3)n(C(C)C)n1 [Taselisib]; details: max 10 µM
How it was run: as §1

[5] = compound: CC1=C(C(=CC=C1)Cl)NC(=O)C2=CN=C(S2)NC3=CC(=NC(=N3)C)N4CCN(CC4)CCO [Dasatinib]; details: max 2 µM
How it was run: as §1

[6] = compound: CC1=CN2[C@@H](C1)C=NC3=CC(=C(C=C3C2=O)OC)OCCCCCOC4=C(C=C5C(=C4)N=C[C@@H]6CC(=CN6C5=O)C)OC [SG3199]; details: max 0.001 µM
How it was run: as §1

[7] = compound: N#Cc1cnc(Nc2cc(NC[C@H]3CNCCO3)c(C(F)(F)F)cn2)cn1 [SRA737]; details: max 10 µM
How it was run: as §1

[8] = compound: O=C(c1cc(Cc2n[nH]c(=O)c3ccccc23)ccc1F)N1CCN(C(=O)C2CC2)CC1 [Olaparib]; details: max 10 µM
How it was run: as §1

[9] = compound: O=c1[nH]cc(F)c(=O)[nH]1 [5-Fluorouracil]; details: max 20 µM
How it was run: as §1

[10] = compound: COc1cccc(OCCCN)c1-c1cc(Nc2cnc(C#N)cn2)n[nH]1 [Prexasertib]; details: max 1 µM
How it was run: as §1

[11] = compound: C1CN(CCC1(C(=O)N[C@@H](CCO)C2=CC=C(C=C2)Cl)N)C3=NC=NC4=C3C=CN4 [AZD5363]; details: max 10 µM
How it was run: as §1

[12] = compound: CCN(CCO)CCCOc1ccc2c(Nc3cc(CC(=O)Nc4cccc(F)c4)[nH]n3)ncnc2c1 [AZD2811]; details: max 1 µM
How it was run: as §1

[13] = compound: COc1cc([C@@H]2c3cc4c(cc3[C@@H](O[C@@H]3O[C@@H]5CO[C@@H](C)O[C@H]5[C@H](O)[C@H]3O)[C@H]3COC(=O)[C@H]23)OCO4)cc(OC)c1O [Etoposide]; details: max 10 µM
How it was run: as §1

[14] = compound: CC(=O)c1c(C)c2cnc(Nc3ccc(N4CCNCC4)cn3)nc2n(C2CCCC2)c1=O [Palbociclib]; details: max 10 µM
How it was run: as §1

[15] = compound: CC(=O)Nc1cccc(-n2c(=O)n(C3CC3)c(=O)c3c(Nc4ccc(I)cc4F)n(C)c(=O)c(C)c32)c1 [Trametinib]; details: max 1 µM
How it was run: as §1

[16] = compound: COc1cccc2c1C(=O)c1c(O)c3c(c(O)c1C2=O)C[C@@](O)(C(=O)CO)C[C@@H]3O[C@H]1C[C@H](N)[C@H](O)[C@H](C)O1 [Doxorubicin]; details: max 1 µM
How it was run: as §1

[17] = compound: NC1(c2ccc(-c3nc4ccn5c(=O)[nH]nc5c4cc3-c3ccccc3)cc2)CCC1 [MK-2206]; details: max 10 µM
How it was run: as §1

[18] = compound: C[C@@H]1COCCN1C2=NC(=NC(=C2)C3(CC3)[S@](=N)(=O)C)C4=C5C=CNC5=NC=C4 [AZD6738]; details: max 10 µM
How it was run: as §1

[19] = compound: COc1cc2ncnc(Nc3ccc(F)c(Cl)c3)c2cc1OCCCN1CCOCC1 [Gefitinib]; details: max 10 µM
How it was run: as §1

[20] = compound: COc1cc(Nc2ncc3c(n2)-c2ccc(Cl)cc2C(c2c(F)cccc2OC)=NC3)ccc1C(=O)O [Alisertib]; details: max 10 µM
How it was run: as §1

[21] = compound: C[C@@H](Nc1cc(F)cc(F)c1)c1cc(C(=O)N(C)C)cc2c(=O)cc(N3CCOCC3)oc12 [AZD8186]; details: max 10 µM
How it was run: as §1

[22] = compound: CS(=O)(=O)CCNCc1ccc(-c2ccc3ncnc(Nc4ccc(OCc5cccc(F)c5)c(Cl)c4)c3c2)o1 [Lapatinib]; details: max 10 µM
How it was run: as §1

[23] = compound: COc1nnc2ccc(N3CCC(c4ccc(OCCN5CCN(C)C(=O)[C@H]5C)cc4)CC3)nn12 [AZD5153]; details: max 1 µM
How it was run: as §1

[24] = compound: C=CCn1c(=O)c2cnc(Nc3ccc(N4CCN(C)CC4)cc3)nc2n1-c1cccc(C(C)(C)O)n1 [AZD1775]; details: max 3 µM
How it was run: as §1

[25] = compound: C1CC(C1)(C(=O)[O-])C(=O)[O-].N.N.[Pt+2] [Carboplatin]; details: max 10 µM
How it was run: as §1

[26] = compound: CN(C)CCCOc1ccc(-c2ccc3ncc4c(c3c2)n(C2CCOCC2)c(=O)n4C)cn1 [AZD0156]; details: max 3 µM
How it was run: as §1

[27] = compound: Cc1cc2ncnn2cc1Nc1ncc2c(n1)n(C1CCOCC1)c(=O)n2C [AZD7648]; details: max 10 µM
How it was run: as §1

[28] = compound: Cc1c2c(nn1C)CSCc1cc(n(C)n1)CSc1cc(c3ccccc3c1)OCCCc1c(C(=O)O)n(C)c3c-2c(Cl)ccc13 [AZD5991]; details: max 1 µM
How it was run: as §1

[29] = compound: CN(CC[C@H](CSC1=CC=CC=C1)NC2=C(C=C(C=C2)S(=O)(=O)NC(=O)C3=CC=C(C=C3)N4CCC(CC4)[C@H](C5=CC=CC=C5C6=CC=C(C=C6)Cl)O)S(=O)(=O)C(F)(F)F)CCO [AZD4320]; details: max 1 µM
How it was run: as §1

[30] = compound: Nc1ccn([C@@H]2O[C@H](CO)[C@@H](O)C2(F)F)c(=O)n1 [Gemcitabine]; details: max 0.3 µM
How it was run: as §1

[31] = compound: O=C(Nc1ccc2[nH]nc(-c3ccncc3)c2c1)[C@@H]1CCN(CC(=O)N2CCN(c3ccc(-c4ncccn4)cc3)CC2)C1; details: max 5 µM
How it was run: as §1

[32] = compound: CC(=O)O[C@H]1C(=O)[C@@]2(C)[C@H]([C@H](OC(=O)c3ccccc3)[C@]3(O)C[C@H](OC(=O)[C@H](O)[C@@H](NC(=O)c4ccccc4)c4ccccc4)C(C)=C1C3(C)C)[C@]1(OC(C)=O)CO[C@@H]1C[C@@H]2O [Paclitaxel]; details: max 3 µM
How it was run: as §1

[33] = compound: CC1(C)CCC(CN2CCN(c3ccc(C(=O)NS(=O)(=O)c4ccc(NCC5CCOCC5)c([N+](=O)[O-])c4)c(Oc4cnc5[nH]ccc5c4)c3)CC2)=C(c2ccc(Cl)cc2)C1 [Venetoclax]; details: max 1 µM
How it was run: as §1

[34] = compound: CCc1c2c(nc3ccc(O)cc13)-c1cc3c(c(=O)n1C2)COC(=O)[C@]3(O)CC [SN-38]; details: max 0.3 µM
How it was run: as §1

[35] = compound: CC(C)n1c(=O)n(C)c2cnc3cc(F)c(-c4ccc(OCCCN5CCCCC5)nc4)cc3c21 [AZD1390]; details: max 0.3 µM
How it was run: as §1

Cell Line	IC50, cell viability 72 h [1]	IC50, cell viability 72 h [2]	IC50, cell viability 72 h [3]	IC50, cell viability 72 h [4]	IC50, cell viability 72 h [5]	IC50, cell viability 72 h [6]	IC50, cell viability 72 h [7]	IC50, cell viability 72 h [8]	IC50, cell viability 72 h [9]	IC50, cell viability 72 h [10]	IC50, cell viability 72 h [11]	IC50, cell viability 72 h [12]	IC50, cell viability 72 h [13]	IC50, cell viability 72 h [14]	IC50, cell viability 72 h [15]	IC50, cell viability 72 h [16]	IC50, cell viability 72 h [17]	IC50, cell viability 72 h [18]	IC50, cell viability 72 h [19]	IC50, cell viability 72 h [20]	IC50, cell viability 72 h [21]	IC50, cell viability 72 h [22]	IC50, cell viability 72 h [23]	IC50, cell viability 72 h [24]	IC50, cell viability 72 h [25]	IC50, cell viability 72 h [26]	IC50, cell viability 72 h [27]	IC50, cell viability 72 h [28]	IC50, cell viability 72 h [29]	IC50, cell viability 72 h [30]	IC50, cell viability 72 h [31]	IC50, cell viability 72 h [32]	IC50, cell viability 72 h [33]	IC50, cell viability 72 h [34]	IC50, cell viability 72 h [35]
LU-65 (Non-Small Cell Lung Carcinoma)	1.65 µM	> 1 µM	7.51 µM	3.01 µM	> 2 µM	> 0.001 µM	4.3 µM	> 10 µM	> 20 µM	0.0896 µM	> 10 µM	> 1 µM	> 10 µM	> 10 µM	0.0529 µM	0.341 µM	> 10 µM	3.97 µM	> 10 µM	> 10 µM	> 10 µM	> 10 µM	> 1 µM	0.77 µM	> 10 µM	> 3 µM	> 10 µM	> 1 µM	> 1 µM	> 0.3 µM	0.35 µM	0.0321 µM	> 1 µM	0.0491 µM	> 0.3 µM
MIA-PaCa-2 (Pancreatic Carcinoma)	3.37 µM	> 1 µM	> 10 µM	> 10 µM	> 2 µM	> 0.001 µM	> 10 µM	> 10 µM	> 20 µM	0.0674 µM	> 10 µM	> 1 µM	2.89 µM	> 10 µM	0.15 µM	0.183 µM	> 10 µM	8.72 µM	> 10 µM	3.49 µM	> 10 µM	> 10 µM	0.165 µM	> 3 µM	> 10 µM	> 3 µM	> 10 µM	> 1 µM	> 1 µM	0.101 µM	2.11 µM	0.0395 µM	> 1 µM	0.0146 µM	> 0.3 µM
MLMA (Other Blood Carcinomas)	> 10 µM	> 1 µM	9.93 µM	0.982 µM	0.548 µM	> 0.001 µM	0.934 µM	> 10 µM	> 20 µM	0.00219 µM	8.83 µM	> 1 µM	2.2 µM	> 10 µM	> 1 µM	0.116 µM	1.76 µM	4.31 µM	> 10 µM	6.31 µM	2.94 µM	> 10 µM	0.0555 µM	0.144 µM	> 10 µM	> 3 µM	> 10 µM	> 1 µM	> 1 µM	0.0228 µM	> 5 µM	0.0137 µM	0.272 µM	0.0163 µM	> 0.3 µM
